Experimental data: US10624897B2, “Chlorobenzene substituted azaaryl compounds” (TAIPEI MEDICAL UNIVERSITY, priority 2015, dated 2020)

Columns and labels:
RT-112 = assay: MTT assay, cell viability; type: cell-based; details: 72 hours
Procedure: (§1) Cells were cultured in RPMI-1640 (RT-112, KMS-11, SNU-16, HT-29, HCT-116, NCI—H520, Hep3B, PLC/PRF/5, HL-60, MOLT-4) and DMEM (HepG2, MCF-7, MDA-MB-231) with 10% FBS (v/v) and Penicillin/Streptomycin (100 U/ml). FU-DDLS-1 cell line was maintained in DMEM:F12 medium with 10% FBS. LiSa-2 cell line was maintained in IMDM/RPMI-1640 in a 4:1 ratio supplemented with 10% FBS, 2 mmol/L L-glutamine, and 0.1 mg/mL gentamicin. Human umbilical vein endothelial cells (HUVECs) were grown to confluence on 1% collagen, and maintained in 90% Medium 199 with 25 U/ml heparin, 30 μg/ml endothelial cell growth supplement (ECGS) adjusted to contain 1.5 g/L sodium bicarbonate, 10% FBS and Penicillin/Streptomycin (100 U/ml) Cultures were maintained at 37° C. in a humidified atmosphere of 5% CO2/95% air.
(§2) Cells were seeded in 96-well plates (5,000 cells/well) and incubated overnight for attachment, and were then treated with indicated agents in 10% FBS-supplemented medium for 72 hours. The medium was replaced with MTT (0.5 mg/mL) at 37° C. for 1 hours. After removal of medium, the cells were lysed with 100 μL per well dimethyl sulfoxide (DMSO), and absorbance at 550 nm was measured with microplate reader. The relative cell viability (%) was expressed as a percentage relative to a DMSO control cells.

Hep3B = assay: MTT assay, cell viability; type: cell-based; details: 72 hours
Procedure: as §1, §2

PLC/PRF/5 = assay: MTT assay, cell viability; type: cell-based; details: 72 hours
Procedure: as §1, §2

SNU-16 = assay: MTT assay, cell viability; type: cell-based; details: 72 hours
Procedure: as §1, §2

RT-112 cells = assay: Cell cycle distribution by flow cytometry; type: cell-based; details: FIG. 3A; for accumulation of the sub-G1 phase (apoptotic cell death): 48 h to 72 h
RT-112 tumor xenografts = details: 5 mg/kg/wk, i.p., nude mice
Procedure: Eight-week-old female athymic nude mice were group-housed in the TMU Laboratory Animal Center (Taipei, Taiwan) under conditions of constant photoperiod (12 h light/12 h dark at 21-0023° C. and 60-85% humidity) with ad libitum access to sterilized food and water. […] Tumors were measured weekly using calipers. Tumor volume (mm3) was calculated from w2×½ (w=width, 1=length in mm of the tumor).

FUDDLS = assay: MTT assay, cell viability; type: cell-based; details: Sarcoma, 72 hours, read-out: IC50 (μM, Mean ± SD)
Procedure: as §1, §2

HCT-116 = assay: MTT assay, cell viability; type: cell-based; details: Homo sapiens; HCT-116, Colorectal, 72 hours; read-out: IC50 (μM, Mean ± SD)
Procedure: as §1, §2

HT-29 = assay: MTT assay, cell viability; type: cell-based; details: Homo sapiens; HT-29, Colorectal, 72 hours; read-out: IC50 (μM, Mean ± SD)
Procedure: as §1, §2

HepG2 = assay: MTT assay, cell viability; type: cell-based; details: Homo sapiens; HepG2, Liver, 72 hours; read-out: IC50 (μM, Mean ± SD)
Procedure: as §1, §2

KMS-11 = assay: MTT assay, cell viability; type: cell-based; details: Homo sapiens; KMS-11, Myeloma, 72 hours; read-out: IC50 (μM, Mean ± SD)
Procedure: as §1, §2

LISA-2 = assay: MTT assay, cell viability; type: cell-based; details: LISA-2, Sarcoma, 72 hours; read-out: IC50 (μM, Mean ± SD)
Procedure: as §1, §2

MCF-7 = assay: MTT assay, cell viability; type: cell-based; details: Homo sapiens, MCF7; MCF-7, Breast, 72 hours; read-out: IC50 (μM, Mean ± SD)
Procedure: as §1, §2

MDA-MB-231 = assay: MTT assay, cell viability; type: cell-based; details: Homo sapiens; MDA-MB-231, Breast, 72 hours; read-out: IC50 (μM, Mean ± SD)
Procedure: as §1, §2

| Structure (SMILES) | Viability (% of control cells) RT-112 (10 uM) Mean (RT-112) | Viability (% of control cells) Hep3B (5 uM) Mean (Hep3B) | Viability (% of control cells) PLC5 (5 uM) Mean (PLC/PRF/5) | Viability (% of control cells) RT-112 (5 uM) Mean (RT-112) | Viability (% of control cells) SNU-16 (5 uM) Mean (SNU-16) | further results |
| --- | --- | --- | --- | --- | --- | --- |
| COc1c(Cl)c(NC(=O)N(C)c2cc(-c3ccc(C#N)cc3)ncn2)c(Cl)c(OC)c1Cl [MPT0L152, 1-(6-(4-cyanophenyl)pyrimidin-4-yl)-1-methyl-3-(2,4,6-trichloro-3,5-dimethoxyphenyl)urea] | 55.3 % of control cells | – | – | – | – | – |
| COc1ccc(-c2cc(N(C)C(=O)Nc3c(Cl)c(OC)c(Cl)c(OC)c3Cl)ncn2)cc1 [MPT0L153, 1-(6-(4-methoxyphenyl)pyrimidin-4-yl)-1-methyl-3-(2,4,6-trichloro-3,5-dimethoxyphenyl)urea] | 43.0 % of control cells | 93.6 % of control cells | 91.3 % of control cells | 63.8 % of control cells | 76.2 % of control cells | – |
| COc1c(Cl)c(NC(=O)N(C)c2cc(-c3ccncc3)ncn2)c(Cl)c(OC)c1Cl [MPT0L148, 1-methyl-1-(6-(pyridin-4-yl)pyrimidin-4-yl)-3-(2,4,6-trichloro-3,5-dimethoxyphenyl)urea] | 89.3 % of control cells | – | – | – | – | – |
| COc1c(Cl)c(NC(=O)N(C)c2cc(-c3ccc(F)cc3)ncn2)c(Cl)c(OC)c1Cl [MPT0L155, 1-(6-(4-fluorophenyl)pyrimidin-4-yl)-1-methyl-3-(2,4,6-trichloro-3,5-dimethoxyphenyl)urea] | 44.4 % of control cells | 72.8 % of control cells | 55.3 % of control cells | 92.6 % of control cells | 80.5 % of control cells | – |
| CC(=O)O[C@H]1C(=O)[C@@]2(C)[C@H]([C@H](OC(=O)c3ccccc3)[C@]3(O)C[C@H](OC(=O)[C@H](O)[C@@H](NC(=O)c4ccccc4)c4ccccc4)C(C)=C1C3(C)C)[C@]1(OC(C)=O)CO[C@@H]1C[C@@H]2O [paclitaxel] | – | – | – | – | – | accumulation of the sub-G1 phase (apoptotic cell death) (RT-112 cells): induced pronounced apoptosis |
| COc1c(Cl)c(NC(=O)N(C)c2cc(-c3cccc(C#N)c3)ncn2)c(Cl)c(OC)c1Cl [MPT0L150, 1-(6-(3-cyanophenyl)pyrimidin-4-yl)-1-methyl-3-(2,4,6-trichloro-3,5-dimethoxyphenyl)urea] | 75.0 % of control cells | – | – | – | – | – |
| COc1c(Cl)c(NC(=O)N(C)c2cc(-c3ccc(Cl)cc3)ncn2)c(Cl)c(OC)c1Cl [MPT0L156, 1-(6-(4-chlorophenyl)pyrimidin-4-yl)-1-methyl-3-(2,4,6-trichloro-3,5-dimethoxyphenyl)urea] | 34.8 % of control cells | 54.3 % of control cells | 44.4 % of control cells | 98.3 % of control cells | 76.7 % of control cells | – |
| COc1c(Cl)c(NC(=O)N(C)c2cc(-c3ccco3)ncn2)c(Cl)c(OC)c1Cl [MPT0L154, 1-(6-(furan-2-yl)pyrimidin-4-yl)-1-methyl-3-(2,4,6-trichloro-3,5-dimethoxyphenyl)urea] | 76.1 % of control cells | – | – | – | – | – |
| CCN1CCN(c2ccc(Nc3nc(Cl)nc(N(C)C(=O)Nc4c(Cl)c(OC)c(Cl)c(OC)c4Cl)n3)cc2)CC1 [MPT0L183, 1-(4-chloro-6-((4-(4-ethylpiperazin-1-yl)phenyl)amino)-1,3,5-triazin-2-yl)-1-methyl-3-(2,4,6-trichloro-3,5-dimethoxyphenyl)urea] | 3.4 % of control cells | 43.3 % of control cells | 45.0 % of control cells | 15.8 % of control cells | 28.2 % of control cells | – |
| N.N.[Cl][Pt][Cl] [Cisplatin, reference compound] | – | – | – | – | – | Tumor growth inhibition (%) (RT-112 tumor xenografts): 56.3% |
| CCN1CCN(c2ccc(-c3cc(N(C)C(=O)Nc4c(Cl)c(OC)c(Cl)c(OC)c4Cl)ncn3)cc2)CC1 [MPT0L182, 1-(6-(4-(4-ethylpiperazin-1-yl)phenyl)pyrimidin-4-yl)-1-methyl-3-(2,4,6-trichloro-3,5-dimethoxyphenyl)urea] | 8.6 % of control cells | 96.3 % of control cells | 78.3 % of control cells | 95.6 % of control cells | 63.2 % of control cells | – |
| COc1c(Cl)c(NC(=O)N(C)c2cc(-c3ccccc3)ncn2)c(Cl)c(OC)c1Cl [MPT0L149, 1-methyl-1-(6-phenylpyrimidin-4-yl)-3-(2,4,6-trichloro-3,5-dimethoxyphenyl)urea] | 82.3 % of control cells | – | – | – | – | – |
| CCN1CCN(c2ccc(Nc3cc(N(C)C(=O)Nc4c(Cl)c(OC)cc(OC)c4Cl)ncn3)cc2)CC1 [BGJ-398, 3-(2,6-Dichloro-3,5-dimethoxy-phenyl)-1-{6-[4-(4-ethylpiperazin-1-yl)-phenylamino]-pyrimidin-4-yl}-1-methyl-urea] | – | – | – | – | – | IC50 (FUDDLS): 1.45 ± 0.17 µM; IC50 (HCT-116): 3.98 ± 0.06 µM; IC50 (HT-29): 4.77 ± 0.14 µM; IC50 (Hep3B; Homo sapiens, Liver, read-out: IC50 (μM, Mean ± SD)): 0.72 ± 0.12 µM; IC50 (HepG2): 5.84 ± 0.25 µM; IC50 (KMS-11): 0.2 ± 0.05 µM; IC50 (LISA-2): 6.13 ± 0.06 µM; IC50 (MCF-7): 5.07 ± 0.63 µM; IC50 (MDA-MB-231): 4.27 ± 0.83 µM; IC50 (PLC/PRF/5; Homo sapiens, PLC/PRF/5, Liver, read-out: IC50 (μM, Mean ± SD)): 2.94 ± 0.11 µM; IC50 (RT-112; Homo sapiens, RT-112, Bladder, read-out: IC50 (μM, Mean ± SD)): 1.7 ± 0.05 µM; G0/G1 cell cycle arrest (RT-112 cells; 24 h): also observed; accumulation of the sub-G1 phase (apoptotic cell death) (RT-112 cells): induced pronounced apoptosis |
| CCN1CCN(c2ccc(Nc3cc(N(C)C(=O)Nc4c(Cl)c(OC)c(Cl)c(OC)c4Cl)ncn3)cc2)CC1 [MPT0L090, 1-(6-((4-(4-ethylpiperazin-1-yl)phenyl)amino)pyrimidin-4-yl)-1-methyl-3-(2,4,6-trichloro-3,5-dimethoxyphenyl)urea] | 12.7 % of control cells | 47.1 % of control cells | 72.6 % of control cells | 52.6 % of control cells | 27.5 % of control cells | – |
| CCN1CCN(c2ccc(Nc3cc(N(C)C(=O)Nc4c(Cl)c(OC)c(Cl)c(OC)c4Cl)nc(-c4ccccc4)n3)cc2)CC1 [MPT0L146, 1-(6-((4-(4-ethylpiperazin-1-yl)phenyl)amino)-2-phenylpyrimidin-4-yl)-1-methyl-3-(2,4,6-trichloro-3,5-dimethoxyphenyl)urea] | 29.7 % of control cells | 94.3 % of control cells | 88.0 % of control cells | 100.8 % of control cells | 83.4 % of control cells | – |
| COc1c(Cl)c(NC(=O)N(C)c2cc(-c3cccnc3)ncn2)c(Cl)c(OC)c1Cl [MPT0L147, 1-methyl-1-(6-(pyridin-3-yl)pyrimidin-4-yl)-3-(2,4,6-trichloro-3,5-dimethoxyphenyl)urea] | 85.0 % of control cells | – | – | – | – | – |
| COc1c(Cl)c(NC(=O)N(C)c2cc(-c3cccc([N+](=O)[O-])c3)ncn2)c(Cl)c(OC)c1Cl [MPT0L151, 1-methyl-1-(6-(3-nitrophenyl)pyrimidin-4-yl)-3-(2,4,6-trichloro-3,5-dimethoxyphenyl)urea] | 63.8 % of control cells | – | – | – | – | – |
